Experimental data as given in paper PMC12955800 (ACS chemical neuroscience, 2021).
“Also recorded” adds a separate entry of the source.

Columns and labels:
[1] = system: A. suum ovijector tissue; assay: Ascaris suum ovijector bioassay
[2] = system: C. elegans (acs-20 cuticle defective mutant); assay: wMicroTracker motility assay; assay type: in vivo, Caenorhabditis elegans; conditions: 10 μM synthetic As-FLP-18A, M9, 12 h, n > 4 wells
[3] = system: C. elegans (acs-20 cuticle defective mutant); assay: C. elegans body length assay; assay type: in vivo, Caenorhabditis elegans; conditions: 100 μM synthetic As-FLP-18A, 96 h, 20 °C, vs S-medium, n > 9 nematodes
[4] = synthetic As-FLP-18A, 10 μM, HBSS, 10 min

| Substance | effect on ovijector contractility ([1]; truncated synthetic peptide GFGDEMSMPGVLR, 10 μM) | effect on ovijector muscle ([1]; synthetic As-FLP-18A, 1 nM to 10 μM, 10 min) | effect on ovijector muscle ([1]; synthetic As-FLP-18A, 10 nM to 1 μM) | response type (RT) on ovijector ([1]; synthetic As-FLP-18A, 1 μM to 10 nM, 10 min) | effect on ovijector muscle ([1]; synthetic As-FLP-18A, 1 μM, RT-2-like) | preparations with RT-1 response [1, 4] | preparations with RT-2 response [1, 4] | C. elegans motility (locomotory activity) [2] | C. elegans growth (body length) [3] |
| --- | --- | --- | --- | --- | --- | --- | --- | --- | --- |
| GFGDEMSMPGVLR [truncated As-FLP-18A] | lacks biological activity in A. suum muscle physiology assays | – | – | – | – | – | – | – | – |
| GFGDEMSMPGVLRF-NH2 [As-FLP-18A] | – | concentration dependent myoexcitatory effects | consistent excitatory effects | RT-2 responses only | transient muscle contraction followed by muscle paralysis | 64.2 % of preparations | 35.7 % of preparations | significant inhibition of locomotion; also recorded: significantly reduced | this effect was mirrored; also recorded: significantly reduced |
